Measurements as given in ChEMBL document CHEMBL2057180, “Triterpenes from Alisma orientalis act as farnesoid X receptor agonists” (Bioorg Med Chem Lett, 2012).
Active and inactive are the calls of the source. The calls are words filed in the database; no cut-off is given here.

Columns and labels:
[1] = target: T1, Bile acid receptor (Homo sapiens) (UniProt Q96RI1); test: Agonist activity at FXR LBD expressed in human HepG2 cells co-expressing GAL4 DBD and pG5-luc assessed as transrepression of rat CYP7A1 promoter-driven luciferase activity at 100 nM after 48 hrs by transient transfection reporter assay relative to control; format: functional, cell-based
T1 sequence (whole entry): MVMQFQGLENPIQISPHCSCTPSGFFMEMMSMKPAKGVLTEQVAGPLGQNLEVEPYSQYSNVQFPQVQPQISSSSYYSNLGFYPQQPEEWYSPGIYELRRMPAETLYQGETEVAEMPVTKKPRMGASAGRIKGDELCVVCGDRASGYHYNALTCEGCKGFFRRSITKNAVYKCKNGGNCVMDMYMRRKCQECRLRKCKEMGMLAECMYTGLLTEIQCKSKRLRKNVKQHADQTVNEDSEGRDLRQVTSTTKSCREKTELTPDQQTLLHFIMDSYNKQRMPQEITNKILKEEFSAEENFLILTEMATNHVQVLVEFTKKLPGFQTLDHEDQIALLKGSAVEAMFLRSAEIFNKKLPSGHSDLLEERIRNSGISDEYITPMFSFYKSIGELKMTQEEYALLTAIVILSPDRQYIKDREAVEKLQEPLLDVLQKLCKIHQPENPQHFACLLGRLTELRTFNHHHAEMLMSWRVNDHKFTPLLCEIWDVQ

[2] = target: T1, Bile acid receptor (Homo sapiens); test: Agonist activity at FXR LBD expressed in human HepG2 cells co-expressing GAL4 DBD and pG5-luc assessed as SHP promoter-driven luciferase activity at 100 nM after 48 hrs by transient transfection reporter assay relative to control; format: functional, cell-based
[3] = target: T1, Bile acid receptor (Homo sapiens); test: Agonist activity at FXR LBD expressed in human HepG2 cells co-expressing GAL4 DBD and pG5-luc assessed as luciferase activity at 1 uM after 48 hrs by transient transfection reporter assay relative to control; format: functional, cell-based
[4] = target: T1, Bile acid receptor (Homo sapiens); test: Agonist activity at FXR LBD expressed in human HepG2 cells co-expressing GAL4 DBD and pG5-luc assessed as PLTP promoter-driven luciferase activity after 48 hrs by transient transfection reporter assay relative to control; format: functional, cell-based
[5] = target: T1, Bile acid receptor (Homo sapiens); test: Agonist activity at FXR LBD expressed in human HepG2 cells co-expressing GAL4 DBD and pG5-luc assessed as luciferase activity at 100 nM after 48 hrs by transient transfection reporter assay relative to control; format: functional, cell-based
[6] = target: T1, Bile acid receptor (Homo sapiens); test: Agonist activity at FXR LBD expressed in human HepG2 cells co-expressing GAL4 DBD and pG5-luc assessed as transrepression of rat CYP7A1 promoter-driven luciferase activity after 48 hrs by transient transfection reporter assay relative to control; format: functional, cell-based
[7] = target: T1, Bile acid receptor (Homo sapiens); test: Agonist activity at FXR LBD expressed in human HepG2 cells co-expressing GAL4 DBD and pG5-luc assessed as SHP promoter-driven luciferase activity at 1 uM after 48 hrs by transient transfection reporter assay relative to control; format: functional, cell-based
[8] = target: T1, Bile acid receptor (Homo sapiens); test: Agonist activity at FXR LBD expressed in human HepG2 cells co-expressing GAL4 DBD and pG5-luc assessed as PLTP promoter-driven luciferase activity at 100 nM after 48 hrs by transient transfection reporter assay relative to control; format: functional, cell-based
HepG2 = test: Cytotoxicity against human HepG2 cells; format: cell-based

| Activity [1] | Activity [2] | Ratio [3] | Activity [4] | Activity [5] | Activity [6] | Ratio [7] | Activity [8] | Compound | Activity (HepG2) |
| --- | --- | --- | --- | --- | --- | --- | --- | --- | --- |
| inactive | inactive | 2 | Dose-dependent effect | inactive | Dose-dependent effect | 1.6 | inactive | CC(=O)O[C@@H](C[C@@H](C)C1=C2C[C@H](O)[C@H]3[C@@]4(C)CCC(=O)C(C)(C)[C@@H]4CC[C@]3(C)[C@@]2(C)CC1)[C@@H](O)C(C)(C)O | Non-toxic |
| 85% | inactive | 2 | Dose-dependent effect | inactive | Dose-dependent effect | 1.6 | inactive | CC(=O)O[C@@H](C[C@@H](C)C1=C2[C@H](O)[C@H](O)[C@H]3[C@@]4(C)CCC(=O)C(C)(C)[C@@H]4CC[C@]3(C)[C@@]2(C)CC1=O)[C@H]1OC1(C)C | Non-toxic |
|  |  |  |  |  |  |  |  | C[C@H](C[C@H](O)[C@H]1OC1(C)C)C1=C2C[C@H](O)[C@H]3[C@@]4(C)CCC(=O)C(C)(C)[C@@H]4CC[C@]3(C)[C@@]2(C)CC1 [ALISOL B] | Toxic |
